According to US20090042913A1, “Indolylalkylthienopyrimidylamines as modulators of the EP2 receptor” (priority 2007, published 2009):

Columns and labels:
[1] = system: cumulus-oocyte complexes (PGE2-induced cumulus expansion); test: Cumulus expansion assay in vitro; assay type: cell-based, mice; details: in competition with PGE2
Experimental: Folliculogenesis is induced in immature female mice at an age of 14-18 days by a single dose (intraperitoneal) of 10 I.U. of PMSG (Pregnant Mare Serum Gonadotropin; Sigma G-4877, Lot 68H0909). 47-50 hours after the injection, the ovaries are removed and the cumulus-oocyte complexes are removed. The cumulus complex is not yet expanded at this stage.
The cumulus-oocyte complexes are then incubated with prostaglandin E2 (PGE2) (0.3 μM), vehicle control (ethanol) or test substances for 20-24 hours. Medium: alpha-MEM medium with 0.1 mM IBMX, pyruvates (0.23 mM) glutamines (2 mM), pen/strep 100 IU/ml pen. and 100 μg/ml strep. and HSA (8 mg/ml). Cumulus expansion is then established through the division into four stages (according to Vanderhyden et al. Dev Biol. 1990 August; 140(2):307-317).

[2] = target: T1, human prostaglandin E2 (subtype EP2) receptor (Homo sapiens, UniProt P43116); test: cAMP antagonism assay (HTRF cAMP detection, PGE2-stimulated cells); assay type: cell-based; details: cAMP antagonism test, in presence of PGE2
T1 construct: host or cells: cells in a cell culture plate
T1 sequence (P43116 whole entry): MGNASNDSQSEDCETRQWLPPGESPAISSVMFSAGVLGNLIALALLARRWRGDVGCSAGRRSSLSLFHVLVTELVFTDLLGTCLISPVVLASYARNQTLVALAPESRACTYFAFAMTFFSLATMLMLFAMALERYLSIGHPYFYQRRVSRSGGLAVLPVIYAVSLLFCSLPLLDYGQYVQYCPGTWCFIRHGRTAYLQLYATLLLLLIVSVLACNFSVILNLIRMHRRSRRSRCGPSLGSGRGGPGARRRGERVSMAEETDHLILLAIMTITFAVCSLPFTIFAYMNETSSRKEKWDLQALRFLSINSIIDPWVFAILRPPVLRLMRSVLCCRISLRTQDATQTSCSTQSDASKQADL
Experimental: (§1) The binding of PGE2 to the EP2 subtype of the human PGE2 receptor induces activation of membrane-associated adenylate cyclases and leads to the formation of cAMP. In the presence of the phosphodiesterase inhibitor IBMX, cAMP which has accumulated due to this stimulation and been released by cell lysis is employed in a competitive detection method. In this assay, the cAMP in the lysate competes with cAMP-XL665 for binding of an Eu cryptate-labelled anti-cAMP antibody.
(§2) The two signals are measured in a suitable measuring instrument with a time lag, i.e. after the background fluorescence has declined.
(§3) The substance solutions (0.75 μl) introduced into an assay plate and 30% DMSO are dissolved in 16 μl of a KRSB+IBMX stimulation solution (1× Krebs-Ringer Bicarbonate Buffer; Sigma-Aldrich # K-4002; including 750 μM 3-isobutyl-1-methylxanthine Sigma-Aldrich # I-7018), and then 15 μl thereof are transferred into a media-free cell culture plate which has been washed with KRSB shortly beforehand.
After preincubation at room temperature (RT) for 30 minutes, 5 μl of a 4×PGE2 solution (11 nM) are added, and incubation is carried out in the presence of the agonist at RT for a further 60 min (volume: ˜20 μl) before the reaction is then stopped by adding 5 μl of lysis buffer and incubated at RT for a further 20 min (volume: ˜25 μl). The cell lysate is then transferred into a measuring plate and measured in accordance with the manufacturer's information (cyclic AMP kit Cisbio International # 62AMPPEC).

[3] = target: T1, human prostaglandin E2 (subtype EP2) receptor; test: cAMP agonism assay (cellular agonism test); assay type: cell-based; details: without PGE2
Experimental: as §1, §2
as §3, with “1-7018),” for “I-7018),”
After incubation at room temperature (RT; volume: ˜15 μl) for 60 minutes, the reaction is then stopped by adding 5 μl of lysis buffer and incubated at RT for a further 20 min (volume: ˜20 μl). The cell lysate is then transferred into a measuring plate and measured in accordance with the manufacturer's instructions (cyclic AMP kit Cisbio International # 62AMPPEC).

IC50 [2] | effect in the cellular agonism test [3] | Structure (SMILES) | suppression of cumulus expansion ([1]; 100-200 μM) | suppression of cumulus expansion ([1]; 10 μM)
 |  | CC(C)Oc1ccc2c(=O)c3cc(C(=O)O)ccc3oc2c1 [AH 6809, reference compound] | approx. 30% | 
0.111 µM | no inhibition | Cc1[nH]c2c(F)ccc(C)c2c1CCNc1ncnc2cc(-c3cccc(F)c3)sc12 [Example 22, [2-(7-fluoro-2,4-dimethyl-1H-indol-3-yl)ethyl]-[6-(3-fluorophenyl)thieno[3,2-d]pyrimidin-4-yl]amine] |  | 45%
0.101 µM |  | Cc1[nH]c2c(F)ccc(C)c2c1CCNc1ncnc2cc(-c3ccc(C(F)(F)F)cc3)sc12 [Example 30, [2-(7-fluoro-2,4-dimethyl-1H-indol-3-yl)ethyl]-[6-(4-trifluoromethylphenyl)thieno[3,2-d]pyrimidin-4-yl]amine] |  | 
0.097 µM |  | Cc1[nH]c2c(F)ccc(C)c2c1CCNc1ncnc2cc(-c3cc(F)ccc3F)sc12 [Example 55, [6-(2,5-difluorophenyl)thieno[3,2-d]pyrimidin-4-yl]-[2-(7-fluoro-2,4-dimethyl-1H-indol-3-yl)ethyl]amine] |  | 
